Test: Simulated buccal dissolution testing (stirred flow-thru cell, simulated saliva)
Format: physicochemical
Conditions: 8 mg dose
From the text: Most USP dissolution tests use large volumes of media—defined as ‘sink conditions’; the aim is to get complete dissolution of the active ingredient. […] They are: • Small volume • Short residence time • Solids transfer • Composition • Incomplete dissolution
For buccal dissolution the volume of saliva is very small compared to that of the stomach and the residence time in the mouth is also very short, the bulk of the dosage form being swallowed within a minute. The dissolution test used here employed procedures and a buccal dissolution apparatus devised by DOW Chemical described in U.S. Pat. No. 7,470,545 B2 herein incorporated by reference to the extent not incompatible herewith.
In order for this test to give meaningful results it is necessary to use a dissolution media that simulates saliva. There is no USP recommended simulated saliva, so the composition used in these studies was based on published ranges. The composition used is shown below:
The technique uses a stirred flow-thru cell with a very short residence time. The buccal dissolution test was set up using simulated saliva, with a liquid volume in the cell of 9 ml, and a flow rate of 5.3 ml/min (2.7 ml/min thru the dip tube to waste, and 2.6 ml/min thru the filter and the in-line UV cell). UV cell path length was 1 mm. The tests were run at room temperature
Buccal dissolution studies were carried out with neat Formosa benzonatate (abbreviated below as “Benz”) and benzonatate resinates prepared from this benzonatate. Preparation of the resinates was at room temperature for 40 hours by the procedure described in Example 2.
Dissolution data were obtained at several benzonatate dosages for both the neat benzonatate and the resinates, and the data were normalized to a dosage of 8 mg. The normalized benzonatate dissolution data are given in Table VII and are plotted as a function of time in FIG. 6.

- Benzonatate Conc. In Effluent (0 sec): 0 mg/L
- Benzonatate Conc. In Effluent (5 sec): 0 mg/L
- Benzonatate Conc. In Effluent (10 sec): 0 mg/L
- Benzonatate Conc. In Effluent (15 sec): 37.3 mg/L
- Cumulative Benzonatate Released (15 sec): 0.008 mg
- Benzonatate Conc. In Effluent (20 sec): 192.8 mg/L
- Cumulative Benzonatate Released (20 sec): 0.059 mg
- Benzonatate Conc. In Effluent (25 sec): 353.0 mg/L
- Cumulative Benzonatate Released (25 sec): 0.180 mg
- Benzonatate Conc. In Effluent (30 sec): 473.4 mg/L
- Cumulative Benzonatate Released (30 sec): 0.362 mg
- Benzonatate Conc. In Effluent (35 sec): 544.2 mg/L
- Cumulative Benzonatate Released (35 sec): 0.587 mg
- Benzonatate Conc. In Effluent (40 sec): 574.7 mg/L
- Cumulative Benzonatate Released (40 sec): 0.834 mg
- Benzonatate Conc. In Effluent (45 sec): 585.5 mg/L
- Cumulative Benzonatate Released (45 sec): 1.090 mg
- Benzonatate Conc. In Effluent (50 sec): 573.6 mg/L
- Cumulative Benzonatate Released (50 sec): 1.346 mg
- Benzonatate Conc. In Effluent (55 sec): 559.0 mg/L
- Cumulative Benzonatate Released (55 sec): 1.596 mg
- Benzonatate Conc. In Effluent (60 sec): 541.7 mg/L
- Cumulative Benzonatate Released (60 sec): 1.839 mg
- Benzonatate Conc. In Effluent (65 sec): 519.6 mg/L
- Cumulative Benzonatate Released (65 sec): 2.074 mg
- Benzonatate Conc. In Effluent (70 sec): 498.0 mg/L
- Cumulative Benzonatate Released (70 sec): 2.298 mg
- Benzonatate Conc. In Effluent (75 sec): 480.4 mg/L
- Cumulative Benzonatate Released (75 sec): 2.514 mg
- Benzonatate Conc. In Effluent (80 sec): 460.2 mg/L
- Cumulative Benzonatate Released (80 sec): 2.722 mg
- Benzonatate Conc. In Effluent (85 sec): 439.9 mg/L
- Cumulative Benzonatate Released (85 sec): 2.921 mg
- Benzonatate Conc. In Effluent (90 sec): 421.8 mg/L
- Cumulative Benzonatate Released (90 sec): 3.111 mg
- Benzonatate Conc. In Effluent (95 sec): 403.2 mg/L
- Cumulative Benzonatate Released (95 sec): 3.293 mg
- Benzonatate Conc. In Effluent (100 sec): 387.3 mg/L
- Cumulative Benzonatate Released (100 sec): 3.468 mg
- Benzonatate Conc. In Effluent (105 sec): 369.4 mg/L
- Cumulative Benzonatate Released (105 sec): 3.635 mg
- Benzonatate Conc. In Effluent (110 sec): 353.5 mg/L
- Cumulative Benzonatate Released (110 sec): 3.795 mg
- Benzonatate Conc. In Effluent (115 sec): 337.8 mg/L
- Cumulative Benzonatate Released (115 sec): 3.947 mg
- Benzonatate Conc. In Effluent (120 sec): 323.0 mg/L
- Cumulative Benzonatate Released (120 sec): 4.093 mg
- Benzonatate Conc. In Effluent (125 sec): 308.9 mg/L
- Cumulative Benzonatate Released (125 sec): 4.233 mg
- Benzonatate Conc. In Effluent (130 sec): 294.9 mg/L
- Cumulative Benzonatate Released (130 sec): 4.366 mg
- Benzonatate Conc. In Effluent (135 sec): 282.2 mg/L
- Cumulative Benzonatate Released (135 sec): 4.494 mg
- Benzonatate Conc. In Effluent (140 sec): 269.8 mg/L
- Cumulative Benzonatate Released (140 sec): 4.615 mg
- Benzonatate Conc. In Effluent (145 sec): 257.6 mg/L
- Cumulative Benzonatate Released (145 sec): 4.732 mg
- Benzonatate Conc. In Effluent (150 sec): 246.0 mg/L
- Cumulative Benzonatate Released (150 sec): 4.843 mg
- Benzonatate Conc. In Effluent (155 sec): 235.2 mg/L
- Cumulative Benzonatate Released (155 sec): 4.949 mg
- Benzonatate Conc. In Effluent (160 sec): 224.7 mg/L
- Cumulative Benzonatate Released (160 sec): 5.051 mg
- Benzonatate Conc. In Effluent (165 sec): 214.7 mg/L
- Cumulative Benzonatate Released (165 sec): 5.148 mg
- Benzonatate Conc. In Effluent (170 sec): 205.2 mg/L
- Cumulative Benzonatate Released (170 sec): 5.241 mg
- Benzonatate Conc. In Effluent (175 sec): 195.8 mg/L
- Cumulative Benzonatate Released (175 sec): 5.329 mg
- Benzonatate Conc. In Effluent (180 sec): 187.1 mg/L
- Cumulative Benzonatate Released (180 sec): 5.414 mg
- Benzonatate Conc. In Effluent (185 sec): 178.8 mg/L
- Cumulative Benzonatate Released (185 sec): 5.495 mg
- Benzonatate Conc. In Effluent (190 sec): 170.9 mg/L
- Cumulative Benzonatate Released (190 sec): 5.572 mg
- Benzonatate Conc. In Effluent (195 sec): 163.1 mg/L
- Cumulative Benzonatate Released (195 sec): 5.646 mg
- Benzonatate Conc. In Effluent (200 sec): 155.8 mg/L
- Cumulative Benzonatate Released (200 sec): 5.716 mg
- Benzonatate Conc. In Effluent (205 sec): 148.8 mg/L
- Cumulative Benzonatate Released (205 sec): 5.783 mg
- Benzonatate Conc. In Effluent (210 sec): 142.0 mg/L
- Cumulative Benzonatate Released (210 sec): 5.848 mg
- Benzonatate Conc. In Effluent (215 sec): 135.6 mg/L
- Cumulative Benzonatate Released (215 sec): 5.909 mg
- Benzonatate Conc. In Effluent (220 sec): 129.6 mg/L
- Cumulative Benzonatate Released (220 sec): 5.967 mg
- Benzonatate Conc. In Effluent (225 sec): 123.7 mg/L
- Cumulative Benzonatate Released (225 sec): 6.023 mg
- Benzonatate Conc. In Effluent (230 sec): 118.3 mg/L
- Cumulative Benzonatate Released (230 sec): 6.077 mg
- Benzonatate Conc. In Effluent (235 sec): 112.9 mg/L
- Cumulative Benzonatate Released (235 sec): 6.128 mg
- Benzonatate Conc. In Effluent (240 sec): 107.8 mg/L
- Cumulative Benzonatate Released (240 sec): 6.177 mg
- Benzonatate Conc. In Effluent (245 sec): 102.9 mg/L
- Cumulative Benzonatate Released (245 sec): 6.223 mg
- Benzonatate Conc. In Effluent (250 sec): 98.3 mg/L
- Cumulative Benzonatate Released (250 sec): 6.268 mg
- Benzonatate Conc. In Effluent (255 sec): 93.7 mg/L
- Cumulative Benzonatate Released (255 sec): 6.310 mg
- Benzonatate Conc. In Effluent (260 sec): 89.7 mg/L
- Cumulative Benzonatate Released (260 sec): 6.350 mg
- Benzonatate Conc. In Effluent (265 sec): 85.6 mg/L
- Cumulative Benzonatate Released (265 sec): 6.389 mg
- Benzonatate Conc. In Effluent (270 sec): 81.8 mg/L
- Cumulative Benzonatate Released (270 sec): 6.426 mg
- Benzonatate Conc. In Effluent (275 sec): 78.0 mg/L
- Cumulative Benzonatate Released (275 sec): 6.461 mg
- Benzonatate Conc. In Effluent (280 sec): 74.5 mg/L
- Cumulative Benzonatate Released (280 sec): 6.495 mg
- Benzonatate Conc. In Effluent (285 sec): 71.3 mg/L
- Cumulative Benzonatate Released (285 sec): 6.527 mg
- Benzonatate Conc. In Effluent (290 sec): 68.1 mg/L
- Cumulative Benzonatate Released (290 sec): 6.558 mg
- Benzonatate Conc. In Effluent (295 sec): 64.8 mg/L
- Cumulative Benzonatate Released (295 sec): 6.587 mg
- Benzonatate Conc. In Effluent (300 sec): 61.6 mg/L
- Cumulative Benzonatate Released (300 sec): 6.615 mg
SMILES: CCCCNc1ccc(C(=O)OCCOCCOCCOCCOCCOCCOCCOCCOCCOC)cc1 [BENZ, benzonatate]

From patent US8808743B2, “Benzonatate compositions and methods of use” (priority 2010, dated 2014)
